Assay results taken from patent US12441691B2 (Cytokinetics, Inc., priority 2020, dated 2025).

System: rabbit skeletal myofibrils (fast skeletal myofibrils)
Assay: Activation of fast skeletal myofibrils (PUMA assay, AC1.4)
Assay type: biochemical
Conditions: calcium at pCa25, AC1.4 = concentration at which the compound increased the enzymatic activity
Procedure: Preparation of fast skeletal myofibrils: Rabbit skeletal myofibrils were prepared based upon the method of Herrmann et al. (Biochem. 32(28):7255-7263(1993). Myofibrils were prepared from rabbit psoas muscle purchased from Pel-Freez Biologicals (Arkansas) within 2 days of ordering, stored on ice. Minced muscle was homogenized in 10 volumes of ice-cold “standard” buffer (50 mM Tris, pH 7.4, 0.1 M KOAc, 5 mM KCl, 2 mM dithiothreitol (DTT), 0.2 mM phenylmethylsulfonyl fluoride (PMSF), 10 μM leupeptin, 5 μM pepstatin, and 0.5 mM sodium azide) containing 5 mM ethylenediaminetetraacetic acid (EDTA) and 0.5% Triton X-100 using an Omni-Macro homogenizer. Myofibrils were recovered by low speed centrifugation (3000 rpm for 10 minutes) and washed 2 times in the Triton X-100 containing buffer to ensure removal of cellular membrane. Following the Triton washes, myofibrils were washed 3 times in “standard” buffer containing 2 mM magnesium acetate. A final wash in assay buffer (12 mM piperazine-1,4-bis(2-ethanesulfonic acid) (PIPES), pH 6.8, 60 mM KCl, 1 mM DTT) was performed and brought to 10% sucrose for flash freezing in liquid nitrogen and storage at −80° C.
Activation of Fast Skeletal Myofibrils: Fast fiber activators were identified by measuring the enzymatic activity of muscle myofibril preparations using the proprietary PUMA (trademark) (see, e.g., U.S. Pat. Nos. 6,410,254, 6,743,599, 7,202,051, and 7,378,254) assay system. Myofibril preparations consisted of rabbit skeletal muscle (approximately 90% fast fibers) that had been mechanically homogenized and washed with a detergent (Triton X-100) to remove cellular membranes. This preparation retained all of the sarcomeric components in a native conformation and the enzymatic activity was still regulated by calcium. Compounds were tested using a myofibril suspension and a level of calcium sufficient to increase enzymatic activity of the myofibrils to 25% of their maximal rate (termed pCa25). Enzymatic activity was tracked via a pyruvate kinase and lactate dehydrogenase-coupled enzyme system. This assay regenerates myosin-produced ADP into ATP by oxidizing NADH, producing an absorbance change at 340 nm. The buffering system was 12 mM PIPES, 2 mM MgCl2, 1 mM DTT at pH 6.8 (PM12 buffer). […] In Table 9, “Example Compound” refers to the compound labeled with the same number in Table 2.

SMILES | AC1.4 [µM]
CC[C@H](C)[C@H]1C(=O)Nc2ccccc2[C@@H]2COC(=O)N12 (single isomer, unassigned) [Compound 36] | 0.09
CC[C@H](C)[C@H]1C(=O)Nc2ccccc2[C@H](CO)N1C(N)=O (single isomer, unassigned) [Compound 37] | 0.26
CC[C@H](C)[C@H]1C(=O)Nc2ccccc2[C@H](C)N1C(=O)c1cnn(C)c1 (single isomer, unassigned) [Compound 38] | 0.10
CC[C@H](C)[C@H]1C(=O)Nc2ccccc2[C@H](C)N1C(N)=O (single isomer, unassigned) [Compound 39] | 0.17
CC[C@H](C)[C@H]1C(=O)Nc2ccccc2[C@@H](C(=O)OC)N1C(=O)c1cnn(C)c1 (single isomer, unassigned) [Compound 321] | 0.12
CC[C@H](C)[C@H]1C(=O)Nc2ccccc2CN1c1nccc(=O)[nH]1 [Compound 3, (S)-3-((S)-sec-Butyl)-4-(6-oxo-1,6-dihydropyrimidin-2-yl)-1,3,4,5-tetrahydro-2H-benzo[e][1,4]diazepin-2-one] | 0.09
CC[C@H](C)[C@H]1C(=O)Nc2ccccc2CN1c1nn[nH]n1 [Compound 4, (S)-3-((S)-sec-Butyl)-4-(2H-tetrazol-5-yl)-1,3,4,5-tetrahydro-2H-benzo[e][1,4]diazepin-2-one] | 0.21
CC[C@H](C)[C@H]1C(=O)Nc2ccccc2CN1C(N)=O [Compound 5, (S)-3-((S)-sec-Butyl)-2-oxo-1,2,3,5-tetrahydro-4H-benzo[e][1,4]diazepine-4-carboxamide] | 0.08
CC[C@H](C)[C@H]1C(=O)Nc2cncnc2CN1C(N)=O [Compound 11, (S)-7-((S)-sec-Butyl)-6-oxo-5,6,7,9-tetrahydro-8H-pyrimido[5,4-e][1,4]diazepine-8-carboxamide] | 1.30
CC[C@H](C)[C@H]1C(=O)Nc2cc(F)cnc2CN1C(N)=O [Compound 13, (S)-3-((S)-sec-Butyl)-8-fluoro-2-oxo-1,2,3,5-tetrahydro-4H-pyrido[3,2-e][1,4]diazepine-4-carboxamide] | 1.03
CC[C@H](C)[C@H]1C(=O)Nc2ccccc2-c2cnc(O)n21 [Compound 14, (S)-5-((S)-sec-Butyl)-3-hydroxy-5H-benzo[f]imidazo[1,5-d][1,4]diazepin-6(7H)-one] | 0.15
CC[C@H](C)[C@H]1C(=O)Nc2ccccc2CN1C(C)=O [Compound 15, (S)-4-Acetyl-3-((S)-sec-butyl)-1,3,4,5-tetrahydro-2H-benzo[e][1,4]diazepin-2-one] | 0.27
CC[C@H](C)[C@H]1C(=O)Nc2ccccc2CN1C(=O)c1cnn(CCO)c1 [Compound 16, (S)-3-((S)-sec-Butyl)-4-(1-(2-hydroxyethyl)-1H-pyrazole-4-carbonyl)-1,3,4,5-tetrahydro-2H-benzo[e][1,4]diazepin-2-one] | 0.14
CC[C@H](C)[C@H]1C(=O)Nc2ccccc2CN1C(=O)CN [Compound 17, (S)-3-((S)-sec-Butyl)-4-glycyl-1,3,4,5-tetrahydro-2H-benzo[e][1,4]diazepin-2-one] | 2.83
CC[C@H](C)[C@H]1C(=O)Nc2ccccc2CN1C(=O)CO [Compound 18, (S)-3-((S)-sec-Butyl)-4-(2-hydroxyacetyl)-1,3,4,5-tetrahydro-2H-benzo[e][1,4]diazepin-2-one] | 0.31
CC[C@H](C)[C@H]1C(=O)Nc2ccccc2CN1C(=N)N [Compound 19, (S)-3-((S)-sec-Butyl)-2-oxo-1,2,3,5-tetrahydro-4H-benzo[e][1,4]diazepine-4-carboximidamide] | 0.13
CC[C@H](C)[C@H]1C(=O)Nc2ccccc2CN1C(=O)OC [Compound 20, Methyl (S)-3-((S)-sec-butyl)-2-oxo-1,2,3,5-tetrahydro-4H-benzo[e][1,4]diazepine-4-carboxylate] | 0.25

SMILES | AC1.4 [µM]
CC[C@H](C)[C@H]1C(=O)Nc2ccccc2CN1/C(=N/C#N)N(C)C [Compound 21, (S,E)-3-((S)-sec-Butyl)-N′-cyano-N,N-dimethyl-2-oxo-1,2,3,5-tetrahydro-4H-benzo[e][1,4]diazepine-4-carboximidamide] | 0.18
CC[C@H](C)[C@H]1C(=O)Nc2ccccc2CN1/C(N)=N/C(=O)OC [Compound 22, Methyl ((E)-amino((S)-3-((S)-sec-butyl)-2-oxo-1,2,3,5-tetrahydro-4H-benzo[e][1,4]diazepin-4-yl)methylene)carbamate] | 0.07
CC[C@H](C)[C@H]1C(=O)Nc2ccccc2CN1c1nc(O)cc(=O)[nH]1 [Compound 23, (S)-3-((S)-sec-Butyl)-4-(4-hydroxy-6-oxo-1,6-dihydropyrimidin-2-yl)-1,3,4,5-tetrahydro-2H-benzo[e][1,4]diazepin-2-one] | 0.16
CC[C@H](C)[C@H]1C(=O)Nc2ccccc2CN1c1ncc(N)c(=O)[nH]1 [Compound 24, (S)-4-(5-Amino-4-hydroxypyrimidin-2-yl)-3-((S)-sec-butyl)-1,3,4,5-tetrahydro-2H-benzo[e][1,4]diazepin-2-one] | 0.08
CC[C@H](C)[C@H]1C(=O)Nc2ccccc2CN1c1noc(=O)[nH]1 [Compound 25, 3-((S)-3-((S)-sec-Butyl)-2-oxo-1,2,3,5-tetrahydro-4H-benzo[e][1,4]diazepin-4-yl)-1,2,4-oxadiazol-5(4H)-one] | 0.12
CC[C@H](C)[C@H]1C(=O)Nc2ccccc2CN1S(C)(=O)=O [Compound 26, (S)-3-((S)-sec-Butyl)-4-(methylsulfonyl)-1,3,4,5-tetrahydro-2H-benzo[e][1,4]diazepin-2-one] | 0.78
CC[C@H](C)[C@H]1C(=O)Nc2ccccc2CN1S(=O)(=O)N(C)C [Compound 27, (S)-3-((S)-sec-Butyl)-N,N-dimethyl-2-oxo-1,2,3,5-tetrahydro-4H-benzo[e][1,4]diazepine-4-sulfonamide] | 0.23
CC(=O)N1Cc2ccccc2NC(=O)[C@@H]1C1CCCCC1 [Compound 28, (S)-4-acetyl-3-cyclohexyl-1,3,4,5-tetrahydro-2H-benzo[e][1,4]diazepin-2-one] | 0.28
NC(=O)N1Cc2ccccc2NC(=O)[C@@H]1C1CCCCC1 [Compound 29, (S)-3-Cyclohexyl-2-oxo-1,2,3,5-tetrahydro-4H-benzo[e][1,4]diazepine-4-carboxamide] | 0.22
CC[C@H](C)[C@H]1C(=O)Nc2ccccc2CN1c1c(N2CC(O)C2)c(=O)c1=O [Compound 30, 3-((S)-3-((S)-sec-Butyl)-2-oxo-1,2,3,5-tetrahydro-4H-benzo[e][1,4]diazepin-4-yl)-4-(3-hydroxyazetidin-1-yl)cyclobut-3-ene-1,2-dione] | 0.08
CC[C@H](C)[C@H]1C(=O)Nc2ccccc2CN1C(=O)NC [Compound 31, (S)-3-((S)-sec-Butyl)-N-methyl-2-oxo-1,2,3,5-tetrahydro-4H-benzo[e][1,4]diazepine-4-carboxamide] | 0.21
CC[C@H](C)[C@H]1C(=O)Nc2ccccc2CN1C(=O)C(N)=O [Compound 33, 2-((S)-3-((S)-sec-Butyl)-2-oxo-1,2,3,5-tetrahydro-4H-benzo[e][1,4]diazepin-4-yl)-2-oxoacetamide] | 1.14
CC[C@H](C)[C@H]1C(=O)Nc2ccccc2CN1c1nc(C)ns1 [Compound 34, (S)-3-((S)-sec-Butyl)-4-(3-methyl-1,2,4-thiadiazol-5-yl)-1,3,4,5-tetrahydro-2H-benzo[e][1,4]diazepin-2-one] | 0.09
CC[C@H](C)[C@H]1C(=O)Nc2ccccc2CN1c1nccs1 [Compound 35, (3S)-3-[(2S)-Butan-2-yl]-4-(1,3-thiazol-2-yl)-1,3,4,5-tetrahydro-2H-1,4-benzodiazepin-2-one] | 0.07
CC[C@H](C)[C@H]1C(=O)Nc2ccccc2C(C(=O)NC)N1C(N)=O (stereo partly drawn) [Compound 40, (3S)-3-((S)-sec-Butyl)-N^5-methyl-2-oxo-1,2,3,5-tetrahydro-4H-benzo[e][1,4]diazepine-4,5-dicarboxamide] | 2.57
CC(C)[C@H]1C(=O)Nc2ccccc2CN1C(=O)c1cnn(C)c1 [Compound 41, (S)-3-Isopropyl-4-(1-methyl-1H-pyrazole-4-carbonyl)-1,3,4,5-tetrahydro-2H-benzo[e][1,4]diazepin-2-one] | 0.96
CC[C@H](C)[C@H]1C(=O)Nc2cc(F)ccc2CN1C(=O)CO [Compound 42, (S)-3-((S)-sec-butyl)-8-fluoro-4-(2-hydroxyacetyl)-1,3,4,5-tetrahydro-2H-benzo[e][1,4]diazepin-2-one] | 0.33
